Results as given in ChEMBL document CHEMBL3784925, “Discovery of a New Inhibitor of Myeloid Differentiation 2 from Cinnamamide Derivatives with Anti-Inflammatory Activity in Sepsis and Acute Lung Injury” (J Med Chem, 2016).
Active and inactive are the calls of the source. The calls are words filed in the database; no cut-off is given here.

Assays:
[1] = Cytotoxicity against C57BL/6 mouse primary peritoneal macrophages assessed as reduction in cell viability at 10 uM after 24 hrs by MTT assay; assay type: cell-based; conditions: peritoneal macrophage cell
[2] = target: T1, Lymphocyte antigen 96 (Homo sapiens) (UniProt Q9Y6Y9); assay: Binding affinity to recombinant human MD2 (17 to 160 residues) expressed in Escherichia coli BL21(DE3) cells at 6.25 to 100 uM by surface plasmon resonance analysis
T1 sequence (whole entry): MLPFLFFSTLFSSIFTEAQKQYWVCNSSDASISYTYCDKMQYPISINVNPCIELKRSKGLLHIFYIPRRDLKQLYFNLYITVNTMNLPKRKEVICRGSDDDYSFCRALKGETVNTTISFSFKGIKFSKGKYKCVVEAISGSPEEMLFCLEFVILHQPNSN

[3] = target: T2, Lymphocyte antigen 96 (Mus musculus) (UniProt Q9JHF9); assay: Inhibition of MD2/TLR4 complex formation in C57BL/6 mouse primary peritoneal macrophages assessed as reversal of LPS-induced […] at 10 uM preincubated for 30 mins followed by LPS addition measured after 1 hr by DAPI staining based fluorescence microscopic analysis
T2 sequence (whole entry): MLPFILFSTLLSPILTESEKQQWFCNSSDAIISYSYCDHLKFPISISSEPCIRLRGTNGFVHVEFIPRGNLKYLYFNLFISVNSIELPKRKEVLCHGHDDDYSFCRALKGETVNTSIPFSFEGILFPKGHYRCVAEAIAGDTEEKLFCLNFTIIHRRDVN

**Q.** Which Activity [1] does the source give for `COc1ccc(/C=C/C(=O)NCc2ccc(OC)c(OC)c2)c(OC)c1` here?
**A.** Non-toxic

**Q.** For `CCCCNC(=O)/C=C/c1ccc(O)c(OC)c1`, which Activity [1] is on record?
**A.** Non-toxic

**Q.** With `COc1ccc(/C=C/C(=O)NCc2ccc(F)cc2)c(OC)c1` as the compound, how does the Activity [1] read?
**A.** Non-toxic

**Q.** Which Activity [1] does the source give for `COc1ccc(/C=C/C(=O)NCCCCCCNC(=O)/C=C/c2ccc(OC)cc2OC)c(OC)c1` here?
**A.** Non-toxic

**Q.** With `COc1ccc(CNC(=O)/C=C/c2cccc(Cl)c2Cl)cc1OC` as the compound, how does the Activity [1] read?
**A.** Non-toxic

**Q.** And the Activity [2]?
**A.** inactive

**Q.** With `O=C(/C=C/c1cccc(Cl)c1Cl)NCc1ccc(Cl)cc1` as the compound, how does the Activity [1] read?
**A.** Non-toxic

**Q.** For `O=C(/C=C/c1cccc(Cl)c1Cl)NCCNC(=O)/C=C/c1cccc(Cl)c1Cl`, which Activity [1] is on record?
**A.** Non-toxic

**Q.** Which Activity [1] does the source give for `O=C(/C=C/c1cccc(Cl)c1Cl)N1CCOCC1` here?
**A.** Non-toxic

**Q.** For `O=C(/C=C/c1cccc(Cl)c1Cl)NCCc1ccccc1`, which Activity [1] is on record?
**A.** Non-toxic

**Q.** Which Activity [1] does the source give for `COc1cc(/C=C/C(=O)NCCNC(=O)/C=C/c2ccc(O)c(OC)c2)ccc1O` here?
**A.** Non-toxic

**Q.** For `COc1ccc(/C=C/C(=O)NCc2ccc(Cl)cc2)c(OC)c1`, which Activity [1] is on record?
**A.** Non-toxic

**Q.** For `COc1ccc(CCNC(=O)/C=C/c2cccc(Cl)c2Cl)cc1`, which Activity [1] is on record?
**A.** Non-toxic

**Q.** For `COc1cc(/C=C/C(=O)NCc2ccc(Cl)cc2)ccc1O`, which Activity [1] is on record?
**A.** Non-toxic

**Q.** For `O=C(/C=C/c1cccc(Cl)c1Cl)NCCCCCCNC(=O)/C=C/c1cccc(Cl)c1Cl`, which Activity [1] is on record?
**A.** Non-toxic

**Q.** Which Activity [1] does the source give for `COc1ccc(/C=C/C(=O)N2CCOCC2)c(OC)c1` here?
**A.** Non-toxic

**Q.** For `COc1cccc(-c2cc(=O)c3ccccc3o2)c1N`, which inhibition [3] is on record?
**A.** inactive

**Q.** With `COc1cc(/C=C/C(=O)NCCCc2ccccc2)ccc1O` as the compound, how does the Activity [1] read?
**A.** Non-toxic
